Changes are numbered by the printed parent chain. Read-outs that look alike come from different tables or passages of the source.
Legend:
[1] = test system: HLA-DR and HLA-DP molecules; experiment: MHC class II binding assays, panel of twelve HLA class II molecules (number of alleles bound); settings: number of the twelve class II MHC alleles bound; title: Threshold 600 nM/5 alleles
[2] = test system: lymphocytes obtained from HSV-1 infected H-2^d mice; experiment: HSV-primed T-cell responses to gD peptides in HSV-1 infected mice; format: cell-based; settings: HSV-1 infected H-2^d mice
Protocol: Twelve days after the second immunization, spleen and inguinal lymph nodes (LN) were removed and placed into ice-cold serum free HL-1 medium supplemented with 15 mM HEPES, 5×10^−5 M β-mercaptoethanol, 2 mM glutamine, 50 U of penicillin and 50 μg of streptomycin (GIBCO-BRL, Grand Island, N.Y.) (complete medium, CM). The cells were cultured in 96-well plates at 5×10^5 cells/well in CM, with recall or control peptide at 30, 10, 3, 1, or 0.3 μg/ml concentration, as previously described in (BenMohamed et al., 2000 and 2002). The cell suspensions were incubated for 72 h at 37° C. in 5% CO2. One μCi (micro-curie) of (^3H)-thymidine (Dupont MEN, Boston, Mass.) was added to each well during the last 16 h of culture. The incorporated radioactivity was determined by harvesting cells onto glass fiber filters and counted on a Matrix 96 direct ionization-counter (Packard Instruments, Meriden, Conn.). Results were expressed as the mean cpm of cell-associated (^3H)-thymidine recovered from wells containing Ag minus the mean cpm of cell-associated (^3H)-thymidine recovered from wells without Ag (A cpm) (average of triplicate). The Stimulation Index (SI) was calculated as the mean cpm of cell-associated (^3H)-thymidine recovered from wells containing Ag divided by the mean cpm of cell-associated (^3H)-thymidine recovered from wells without Ag (average of triplicate). For all experiments the irrelevant control peptide gB141-165 and the T-cell mitogen Concanavalin A (ConA) (Sigma, St. Louis, Mo.) were used as negative and positive controls, respectively. Proliferation results were confirmed by repeating each experiment twice. A T-cell proliferative response was considered positive when A cpm>1000 and SI>2.
To define the fine specificity of broadly reactive T-cells associated with viral immunity and to explore immunodominance in the context of HSV infection, proliferation of lymphocytes obtained from twenty HSV-1 infected H-2^d mice were evaluated using the twelve gD peptides as Ag (FIG. 6). […] Despite a difference between individual mice, a unique array of T-cell responses was identified for each of the twenty infected mice analyzed.

[3] = target: T1, DP401=HLA-DP(α1*0101,α1*0401) (Homo sapiens, UniProt P04440+P20036); experiment: biochemical; format: binding
T1 sequence (P20036 32-260 limits assumed): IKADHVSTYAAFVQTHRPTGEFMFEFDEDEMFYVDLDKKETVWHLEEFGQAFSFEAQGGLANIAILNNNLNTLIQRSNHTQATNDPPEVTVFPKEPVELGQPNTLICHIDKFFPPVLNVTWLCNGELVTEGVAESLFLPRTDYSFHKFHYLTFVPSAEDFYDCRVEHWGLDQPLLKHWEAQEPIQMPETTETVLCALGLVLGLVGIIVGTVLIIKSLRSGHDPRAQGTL
T1 sequence (P04440 30-258): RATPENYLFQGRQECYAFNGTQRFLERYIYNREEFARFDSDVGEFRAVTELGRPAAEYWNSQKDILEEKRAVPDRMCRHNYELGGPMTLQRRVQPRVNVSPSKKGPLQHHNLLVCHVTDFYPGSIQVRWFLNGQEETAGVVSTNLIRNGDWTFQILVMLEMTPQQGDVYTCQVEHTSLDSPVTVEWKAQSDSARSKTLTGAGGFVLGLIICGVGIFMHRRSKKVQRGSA

[4] = target: T2, DR1=HLA-DR(α1*0101,α1*0101) (Homo sapiens, UniProt P01903+P01911, A100R/D57E/F55L/F60I/F76Y/I96L/L162R/M171V/P40L/Q125E/R42F/V115G/Y59C); experiment: biochemical; format: binding; settings: […]
T2 construct: endogenous in cells; host or cells: EBV homozygous human B cell line

[5] = target: T3, DRB5=HLA-DR(α1*0101,α5*0101) (Homo sapiens, UniProt P01903+Q30154); experiment: biochemical; format: binding; settings: Table V; […]; read-out: IC50 DRB5
T3 construct: endogenous in cells; host or cells: EBV homozygous human B cell line

[6] = target: T4, DR13=HLA-DR(α1*0101,α1*1301) (Homo sapiens, UniProt P01903+P01911, A100E/A169T/K41T/L162R/M171V/P40S/Q125H/Q178H/Q39Y/Q99D/R42S/S66N/T262R/W38E/Y61H); experiment: HLA-DR specific binding assay, DR13
T4 construct: endogenous in cells; host or cells: 0206AD (EBV homozygous B cell line)

[7] = target: T5, DRB4=HLA-DR(α1*0101,α4*0101) (Homo sapiens, UniProt P01903+P13762, G164S); experiment: HLA-DR specific binding assay, DRB4 (DR53)
T5 construct: endogenous in cells

[8] = target: T6, DRB3=HLA-DR(α1*0101,α3*0101) (Homo sapiens, UniProt P01903+P79483); experiment: HLA-DR specific binding assay, DRB3 (DR52)
T6 construct: endogenous in cells; host or cells: STEILIN or 0206AD (both typed DRB3*0101)

[9] = target: T7, DR7=HLA-DR(α1*0101,α1*0701) (Homo sapiens, UniProt P01903+P01911, A100R/A102G/A103Q/D57E/D86V/E43K/F76Y/K127E/L162R/M171V/P40G/Q125H/Q99D/R33Q/R42Y/R54Q/S133A/S66F/T210M/V115G/Y107V/Y59L/Y89S); experiment: HLA-DR specific binding assay, DR7
T7 construct: endogenous in cells; host or cells: EBV homozygous human B cell line

[10] = target: T8, DR11=HLA-DR(α1*0101,α1*1101) (Homo sapiens, UniProt P01903+P01911, A100R/A169T/A87E/I96F/K41T/L162R/M171V/P40S/Q125H/Q178H/Q39Y/Q99D/R42S/S66Y/T262R/V115G/W38E); experiment: biochemical; format: binding
T8 construct: endogenous in cells; host or cells: SWEIG (EBV homozygous B cell line)

[11] = target: T9, DP402 DP (α1*0101, α1*0402) (Homo sapiens, UniProt P04440+P20036, A65V/A84D/A85E/L207M); experiment: biochemical; format: binding
T9 sequence (P20036 29-260): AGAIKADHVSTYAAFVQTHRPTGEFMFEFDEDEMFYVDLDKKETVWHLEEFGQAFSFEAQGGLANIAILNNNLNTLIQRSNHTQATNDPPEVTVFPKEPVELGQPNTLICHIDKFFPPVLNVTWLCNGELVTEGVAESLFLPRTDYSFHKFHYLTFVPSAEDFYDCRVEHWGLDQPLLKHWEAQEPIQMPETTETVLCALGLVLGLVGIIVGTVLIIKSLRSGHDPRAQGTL
T9 sequence (P04440 30-258 A65V/A84D/A85E): T1 sequence (P04440 30-258) with A36V, A55D, A56E

[12] = target: T10, DR15=HLA-DR(α1*0101,α1*1501) (Homo sapiens, UniProt P01903+P01911); experiment: HLA-DR specific binding assay, DR15
T10 construct: endogenous in cells; host or cells: EBV homozygous human B cell line

[13] = target: T11, DR4=HLA-DR(α1*0101,α1*0401) (Homo sapiens, UniProt P01903+P01911, A100K/A169T/F76Y/I96L/K127E/L162R/M171V/N62H/P40V/Q125Y/R42H/S133A/S149N/S66Y/V115G/V209L/W38E); experiment: biochemical; format: binding
T11 construct: endogenous in cells; host or cells: BOLETH (EBV homozygous B cell line)

[14] = target: T12, DR3=HLA-DR(α1*0101,α1*0301) (Homo sapiens, UniProt P01903+P01911, A100K/A102G/A103R/A169T/F55Y/I96L/K41T/L162R/M171V/P40S/Q125H/Q178H/Q39Y/R42S/S66N/T106N/T262R/W38E/Y61H); experiment: HLA-DR specific binding assay, DR3
T12 construct: endogenous in cells; host or cells: STEILIN (EBV homozygous B cell line)

[15] = Class II MHC allele DR1, read-out: IC50, DR1
[16] = IC50, DRD3, Class II MHC allele DRD3 (so in the source)
[17] = Class II MHC allele DR11, read-out: IC50, DR11
[18] = Table V, […], read-out: IC50 DR11
[19] = Class II MHC allele DR4, read-out: IC50, DR4
[20] = Table V, […], read-out: IC50 DR4
[21] = IC50, DR3, Class II MHC allele DR3

T6 sequence (P79483 30-266, other chains not shown): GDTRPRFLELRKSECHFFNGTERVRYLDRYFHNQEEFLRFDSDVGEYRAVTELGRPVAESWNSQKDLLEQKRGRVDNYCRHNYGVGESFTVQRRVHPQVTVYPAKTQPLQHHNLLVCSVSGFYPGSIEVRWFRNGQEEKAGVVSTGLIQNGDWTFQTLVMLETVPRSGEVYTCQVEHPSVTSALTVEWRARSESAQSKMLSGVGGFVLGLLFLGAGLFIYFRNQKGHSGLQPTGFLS
T3 sequence (Q30154 30-266, other chains not shown): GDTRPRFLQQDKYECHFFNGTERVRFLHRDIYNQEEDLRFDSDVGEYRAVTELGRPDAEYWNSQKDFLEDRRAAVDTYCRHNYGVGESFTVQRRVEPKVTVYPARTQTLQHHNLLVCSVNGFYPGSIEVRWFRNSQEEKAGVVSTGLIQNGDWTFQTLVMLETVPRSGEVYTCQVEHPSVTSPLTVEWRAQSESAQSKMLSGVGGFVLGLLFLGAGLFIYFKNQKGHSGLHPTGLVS

SMILES	Range [1]	IC50 ([3]; Class II MHC allele DP401)	IC50 ([3]; Table V, […])	IC50 ([4]; Table V, read-out: IC50 DR1)	IC50 [4, 15]	IC50 [5]	IC50 [6]	IC50 [7]	IC50 [8, 16]	IC50 ([8]; IC50 DRB3, Table V, […])	IC50 [9]	IC50 [10, 17]	IC50 [10, 18]	IC50 ([11]; Class II MHC allele DP402)	IC50 ([11]; Table V, […])	IC50 [12]	IC50 [13, 19]	IC50 [13, 20]	IC50 [14, 21]	IC50 ([14]; IC50 DR3, Table V, […])	other results
CC[C@H](C)[C@H](NC(=O)[C@@H](N)[C@@H](C)O)C(=O)N[C@@H](C)C(=O)N[C@@H](Cc1c[nH]c2ccccc12)C(=O)N[C@@H](Cc1ccccc1)C(=O)N[C@@H](CCCNC(=N)N)C(=O)N[C@@H](CCSC)C(=O)NCC(=O)NCC(=O)N[C@@H](CC(N)=O)C(=O)N[C@@H](CS)C(=O)N[C@@H](C)C(=O)N[C@H](C(=O)N1CCC[C@H]1C(=O)N[C@H](C(=O)N[C@H](C(=O)N[C@H](C(=O)N[C@@H](CCSC)C(=O)N[C@@H](CCC(=O)O)C(=O)N[C@@H](Cc1ccc(O)cc1)C(=O)N[C@H](C(=O)N[C@@H](CCC(=O)O)C(=O)N[C@@H](CS)C(=O)N[C@@H](CO)C(=O)N[C@@H](Cc1ccc(O)cc1)C(=O)N[C@@H](CC(N)=O)C(=O)N[C@@H](CCCCN)C(=O)N[C@@H](CO)C(=O)O)[C@@H](C)O)C(C)C)[C@@H](C)O)[C@@H](C)CC)[C@@H](C)CC [HSV 41]	8	–	–	–	–	–	–	–	–	–	–	–	–	–	–	–	–	–	–	–	immunodominance of epitopes in HSV-primed T-cell responses [2]: subdominant epitopes
CC[C@H](C)[C@H](NC(=O)[C@H](CCSC)NC(=O)[C@H](CCC(=O)O)NC(=O)[C@H](CCCNC(=N)N)NC(=O)[C@H](C)NC(=O)[C@H](CCC(=O)O)NC(=O)[C@H](C)NC(=O)[C@H](CC(C)C)NC(=O)[C@@H](N)CCCCN)C(=O)N[C@@H](CCCNC(=N)N)C(=O)N[C@@H](Cc1ccc(O)cc1)C(=O)N[C@@H](CCSC)C(=O)N[C@@H](C)C(=O)N[C@@H](CC(C)C)C(=O)N[C@H](C(=O)N[C@@H](CO)C(=O)N[C@@H](C)C(=O)N[C@@H](CCSC)C(=O)N[C@@H](CCC(=O)O)C(=O)N[C@@H](CCCNC(=N)N)C(=O)N[C@H](C(=O)N[C@@H](CCC(=O)O)C(=O)N[C@@H](Cc1c[nH]cn1)C(=O)N[C@@H](CCCCN)C(=O)N[C@@H](C)C(=O)N[C@@H](CCCCN)C(=O)N[C@@H](CCCCN)C(=O)N[C@@H](CCCCN)C(=O)NCC(=O)N[C@H](C(=O)N[C@@H](CO)C(=O)N[C@@H](C)C(=O)O)[C@@H](C)O)[C@@H](C)O)C(C)C [HSV 1]	10	1610 nM	1610 nM	6 nM	6 nM	6 nM	284 nM	43 nM	> 100000 nM	> 100000 nM	296 nM	13 nM	13 nM	240 nM	240 nM	3 nM	37 nM	37 nM	995 nM	995 nM	–
CSCC[C@H](NC(=O)[C@@H](NC(=O)[C@H](Cc1ccc(O)cc1)NC(=O)[C@H](CCCNC(=N)N)NC(=O)[C@@H](N)Cc1ccccc1)C(C)C)C(=O)N[C@@H](CCCNC(=N)N)C(=O)N[C@@H](CC(C)C)C(=O)N[C@@H](CCC(N)=O)C(=O)N[C@@H](CO)C(=O)N[C@@H](CC(N)=O)C(=O)N1CCC[C@H]1C(=O)N[C@@H](CCSC)C(=O)N[C@@H](CCCCN)C(=O)N[C@@H](C)C(=O)N[C@@H](CC(C)C)C(=O)N[C@@H](Cc1ccc(O)cc1)C(=O)N1CCC[C@H]1C(=O)N[C@@H](CC(C)C)C(=O)N[C@H](C(=O)N[C@H](C(=O)N[C@@H](CCCCN)C(=O)N[C@@H](CCC(=O)O)C(=O)N[C@@H](CC(C)C)C(=O)N[C@@H](CCCCN)C(=O)N[C@@H](CC(N)=O)C(=O)N1CCC[C@H]1C(=O)N[C@H](C(=O)N[C@@H](CC(N)=O)C(=O)N1CCC[C@H]1C(=O)N[C@@H](CC(=O)O)C(=O)N[C@@H](C)C(=O)N[C@@H](CO)C(=O)NCC(=O)N[C@@H](CCC(=O)O)C(=O)NCC(=O)O)[C@@H](C)O)[C@@H](C)O)[C@@H](C)O [HSV 8]	10	107 nM	107 nM	2 nM	2 nM	2 nM	314 nM	232 nM	55000 nM	55000 nM	20 nM	4 nM	4 nM	32 nM	32 nM	3 nM	12 nM	12 nM	4780 nM	4780 nM	–

From patent publication US20080299140A1, “Immunogenic Composition and Peptide Sequences for Prevention and Treatment of an Hsv Condition” (priority 2002, published 2008)
